Reference: US12214036B2, “Combination therapy comprising AXL/MER and PD-1/PD-L1 inhibitors” (Incyte Corporation, priority 2020, dated 2025)

Target: T1, MER (Homo sapiens, UniProt Q12866)
T1 construct: recombinant phosphorylated forms of the kinase domains for AXL, MER and TYRO3; purchased Carna Biosciences 08-108
T1 sequence (Q12866 587-858 limits assumed): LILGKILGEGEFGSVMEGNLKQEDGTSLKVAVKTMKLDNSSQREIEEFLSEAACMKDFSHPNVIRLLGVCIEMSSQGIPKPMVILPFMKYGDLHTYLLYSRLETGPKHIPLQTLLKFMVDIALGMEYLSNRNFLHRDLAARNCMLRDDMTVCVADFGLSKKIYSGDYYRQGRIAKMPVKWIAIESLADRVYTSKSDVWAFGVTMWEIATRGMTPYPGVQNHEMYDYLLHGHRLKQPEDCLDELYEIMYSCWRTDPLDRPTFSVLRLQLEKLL
Assay: TR-FRET kinase assay, cMER
Assay type: biochemical
Experimental: The biochemical potency of Compound 1 to inhibit the enzymatic activity of TAM family members was investigated by TR-FRET assays using recombinant phosphorylated forms of the kinase domains for AXL, MER and TYRO3.
Phospho-AXL (pAXL), cMER and Tyro3 kinase activities were measured by time-resolved fluorescence energy transfer (TR-FRET) assays. Autophosphorylation of AXL was carried out before the kinase assay by incubating the recombinant AXL protein (ThermoFisher Scientific; #PV4275) in buffer containing 50 mM Tris, pH 7.5, 0.2 mg/mL AXL, 5 mM ATP, 20 mM MgCl2 and 2 mM dithiothreitol (DTT) at room temperature for 1 hour. […] The plate was incubated for 30 minutes at room temperature, and homogenous time resolved fluorescence (HTRF) signal was measured on a PheraStar FS plate reader (BMG Labtech, Ortenberg, Germany). Percent inhibition was calculated for each concentration, and half maximal inhibitory concentration (IC50) value was generated from curve fitting with GraphPad Prism software (San Diego, Calif.).
Compound reversibility was determined by measuring the recovery of cMER enzymatic activity after a rapid and large dilution of the cMER-inhibitor complex. cMER, ATP, and biotin-labeled peptide substrate were diluted in kinase assay buffer containing 50 mM HEPES, pH 7.5, 10 mM MgCl2, 1 mM EGTA, 0.01% NP-40, and 2 mM DTT. […]

CC(C)C(=O)N1CCC(c2cc(-c3ccc(NC(=O)c4cn(C(C)C)c(=O)n(-c5ccccn5)c4=O)cc3)c3c(N)ncnn23)CC1 [Compound 1, N-(4-(4-Amino-7-(1-isobutyrylpiperidin-4-yl)pyrrolo[1,2-f][1,2,4]triazin-5-yl)phenyl)-1-isopropyl-2,4-dioxo-3-(pyridin-2-yl)-1,2,3,4-tetrahydropyrimidine-5-carboxamide]
mode of inhibition with respect to ATP concentration (MER kinase assay, IC50 at 25, 100, 300, 1000 μM ATP (FIG. 1)): ATP-competitive mode of inhibition
IC50 (average from multiple lots, n=25, read-out: IC50 against MER): 3.17 ± 1.97 nM
